Our source for the IC50, inhibition and Activity values is ChEMBL document CHEMBL5257109, “Development of actein derivatives as potent anti-triple negative breast cancer agents” (Bioorg Med Chem Lett, 2023).

Activity calls are given as the source filed them. The rule behind the calls is not given here. Bounds are passed on as bounds.

For assay [1], the system named is MDA-MB-231. In words: Antiproliferative activity against human MDA-MB-231 cells assessed as inhibition of cell growth. It is filed as functional, cell-based.
Assay [2] deals with MDA-MB-231. In words: Antiproliferative activity against human MDA-MB-231 cells overexpressing ERnegative and […] assessed as inhibition of cell growth incubated for 96 hrs by coulter counter analysis. It is filed as functional, cell-based. Conditions: MDA-MB-231, 96 h.
In assay [3] the test system is HCC1806. In words: Antiproliferative activity against human HCC1806 cells assessed as inhibition of cell growth incubated for 36 hrs by SRB assay. It is filed as functional, cell-based. Conditions: HCC1806, 36 h. (The SRB assay estimates cell density from bound dye.)
Assay [4] deals with MDA-MB-231. In words: Antiproliferative activity against human MDA-MB-231 cells assessed as inhibition of cell growth incubated for 36 hrs by SRB assay. It is filed as functional, cell-based. Conditions: MDA-MB-231, 36 h.
The next assay deals with MCF7. The experiment in a line: Antiproliferative activity against human MCF7 cells assessed as inhibition of cell growth incubated for 96 hrs by coulter counter analysis. The following applies: MCF7, 96 h. The class given is functional, cell-based.
The test system of assay [5] is MDA-MB-231. In words: Antiproliferative activity against human MDA-MB-231 cells assessed as inhibition of cell growth at 20 uM incubated for 36 hrs by SRB assay relative to control. The class given is functional.
In assay [6] the test system is HCC1806. In words: Induction of cell cycle arrest in human HCC1806 cells assessed as increase in S phase cells at 10 uM incubated for 36 hrs by PI staining based flow cytometric analysis. It is filed as functional. In general terms: A flow cytometer gives signals particle by particle.
The test system of assay [7] is HCC1806. The experiment in a line: Induction of cell death in human HCC1806 cells assessed as increase in p21 expression incubated for 36 hrs by Western blot analysis. The class given is functional, cell-based. Conditions: dose 10-20 µM. For orientation: In western blotting, separated proteins are transferred to a membrane and probed.
Assay [8] concerns HCC1806. In words: Antiproliferative activity against human HCC1806 cells assessed as inhibition of cell growth at 20 uM incubated for 36 hrs by SRB assay relative to control. It is filed as functional.
Assay [9] relates to HCC1806. The experiment in a line: Induction of cell death in human HCC1806 cells assessed as activation of p38 protein incubated for 36 hrs by Western blot analysis. The class given is functional, cell-based. Conditions: dose 10-20 µM.
Assay [10] concerns HCC1806. In words: Induction of cell cycle arrest in human HCC1806 cells assessed as decrease in G2/M phase cells at 10 uM incubated for 36 hrs by PI staining based flow cytometric analysis. The class given is functional.

Usually IC50 stands for the concentration that gives 50% inhibition. A word on the inhibition: it is the change of the read-out against control, counted positive when it falls.

For `CC(=O)O[C@@H]1C[C@@]23C[C@@]24CC[C@H](O[C@@H]2OC[C@@H](O)[C@H](O)[C@H]2O)C(C)(C)[C@@H]4CC[C@H]3[C@]2(C)C[C@@H]3O[C@]4(C[C@@H](C)[C@@H]3[C@@]12C)O[C@H](O)[C@@]1(C)O[C@@H]41` [ACTEIN], the IC50 is 60 µM in the assay on MDA-MB-231 [1]; 74 µM in the assay on MDA-MB-231 [2]; more than 20 µM in the assay on HCC1806 [3]; more than 20 µM in the assay with MDA-MB-231 [4]; 14 µM in the assay with MCF7.
For `CC(=O)O[C@@H]1[C@@H](OC(C)=O)[C@H](O[C@H]2CC[C@]34C[C@]35C[C@@H](OC(C)=O)[C@]3(C)[C@H]6[C@H](C)C[C@]7(O[C@@H](OC(=O)CCC(=O)O)[C@@]8(C)O[C@@H]78)O[C@H]6C[C@@]3(C)[C@@H]5CC[C@H]4C2(C)C)OC[C@H]1OC(C)=O`, the figures for the IC50 with HCC1806 [3] and with MDA-MB-231 [4] were 2.78 µM and 9.11 µM, respectively. For the same compound, the inhibition at 20 µM in the assay with MDA-MB-231 [5] and in the assay with HCC1806 [8] was more than 50% in each case. Moreover, the result with HCC1806 [6] and in the assay with HCC1806 [10] was Active. For the same compound, the Activity entry in the assay with HCC1806 [7] and in the assay with HCC1806 [9] was “Dose-Dependent Effect” in each case.
Consider `CC(=O)OC1O[C@]2(C[C@@H](C)[C@H]3[C@H](C[C@@]4(C)[C@@H]5CC[C@H]6C(C)(C)[C@@H](O[C@@H]7OC[C@@H](OC(C)=O)[C@H](OC(C)=O)[C@H]7OC(C)=O)CC[C@@]67C[C@@]57C[C@@H](OC(C)=O)[C@]34C)O2)[C@@H]2O[C@]12C` (stereo partly specified), for which the IC50 with HCC1806 [3] is 8.21 µM; in the assay with MDA-MB-231 [4], more than 20 µM. Besides, the inhibition at 20 µM with MDA-MB-231 [5] and with HCC1806 [8] was more than 50% in each case.
For `CC(=O)O[C@@H]1[C@@H](OC(C)=O)[C@H](O[C@H]2CC[C@]34C[C@]35CC(=O)[C@]3(C)[C@H]6[C@H](C)C[C@]7(O[C@@H](OC(=O)CCC(=O)O)[C@@]8(C)O[C@@H]78)O[C@H]6C[C@@]3(C)[C@@H]5CC[C@H]4C2(C)C)OC[C@H]1OC(C)=O`, the half-maximal inhibitory concentration (IC50) with HCC1806 [3] is 10.7 µM; with MDA-MB-231 [4], 12.1 µM. In addition, the inhibition at 20 µM in the assay on MDA-MB-231 [5] and in the assay with HCC1806 [8] was more than 50% throughout.
